Values of other authors as cited in patent publication US20060045857A1, “Sunless tanning composition and methods for using” (priority 2004, published 2006).

Conditions: in vivo

Substance: Poly(vinylpyrrolidone/1-hexadecene) [PVPH]
- dermal toxicity: no demonstrable dermal toxicity

Substance: poly(vinylpyrrolidone/1-eicosene) [PVPE]
- dermal toxicity: no demonstrable dermal toxicity
